The subject of data set [1] is RET and its mutant forms. The following applies: compared with reported RET inhibitors; cited from earlier work.
The subject of data set [2] is FLT-3. The following applies: cited from earlier work.
The nature of data set [3]: solubility in DMF. In kind it is physicochemical. As to the method: The reaction set-up used a T-mixer at 20° C. prior to injecting the solution of 4 into the heated glass reactor chip that was held at 80 or 95° C. […] Based on these findings, we sought to modify our strategy for execution of this reaction in flow.

Where “and” joins values, the source holds several entries; their conditions need not be identical. Equal entries are not always repeated.

As for `CN1CCN(Cc2ccc(NC(=O)c3cncc(C#Cc4cnc(N)c5ncccc45)c3)cc2C(F)(F)F)CC1` [HSN608, 5-((8-Amino-1,7-naphthyridin-5-yl)ethynyl)-N-(4-((4-methylpiperazin-1-yl)methyl)-3-(trifluoromethyl)phenyl)nicotinamide], the “inhibition activity of RET and its mutant forms” value in data set [1] is “better than the reported RET inhibitors”. In addition, in data set [2], the “potency toward inhibition of all FLT-3 forms” value was “high potency”.
Turning to `Nc1ncc(Br)c2cccnc12` [compound 4, 5-bromo-8-amino-1,7-naphthyridine], the solubility – broadly, the concentration that dissolves in the medium under given conditions – in data set [3] (20° C. in DMF) is 14.6 mg/ml and 0.065 M; in data set [3] (20° C. in DMF, after recrystallizing twice (EtOH, then EtOAc)) it was 0.0785 M and 17.6 mg/ml; in data set [3] (55° C. in DMF) it was 38.1 mg/ml and 0.170 M.

Values taken from US20230183246A1, “CONTINUOUS FLOW SONOGASHIRA COUPLING SYNTHESIS METHOD” (Purdue Research Foundation, priority 2020, published 2023).
